The source of these data is PubChem BioAssay AID179 (DTP/NCI, 2004).

The subject of the experiment is CEM cells HIV-1 protection, formazan growth assay. As to the kind of experiment: NCI AIDS Antiviral Assay. The note with it: for IC50: measured here: growth of uninfected CEM cells. In outline:
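Human CEM cells, uninfected and HIV-1-infected, received five drug concentrations, and growth was read by soluble formazan assay. Compounds giving at least 50% protection were retested; reproducible 100% protection defined confirmed active.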

SMILES strings stand for the structures. The source made the active and inactive calls.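 How the source made its calls: active means compounds giving half or more protection of infected cells from virus-caused growth loss, again on retest; inactive means the rest.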

In general, EC50 refers to the concentration needed to bring the measured effect to its halfway point. As usually defined, the IC50 is the concentration at which inhibition is half-maximal. Low readings indicate greater potency, high ones weaker potency. With `Nc1nc2c(s1)CCC2`, the EC50 is > 708 µM and the IC50 came to 5.62 µM.
For the compound `CC(C)CC(NC(=O)C(CCI)Cc1ccccc1)C(=O)Nc1ccccc1` (centres undefined), the EC50 is > 200 µM and the IC50 was found to be 32.4 µM.
The corresponding values for `Cc1ccccc1N=C(N)Nc1ccccc1C` are > 200 µM and > 200 µM.
The corresponding values for `COc1ccc(CN2CCC/C=C/CC(Cl)(Cl)C2=O)cc1` are > 110 µM and 57.5 µM.
As to `COc1cc2c(cc1OC)C13CCN4CC5=CCOC(CC(=O)O)C(C5CC41)C3N2` (centres undefined), the EC50 came out at 25.7 µM and the IC50 came out at 151 µM.
The corresponding values for `O=C(c1ccco1)N(C(=S)N1CCN(c2ccccn2)CC1)C1CCCCC1` are > 46.8 µM and 35.5 µM.
Consider `CC[N+]1(C)CCC(O)(c2ccc(Cl)c(Cl)c2)C(C(=O)c2ccc(Cl)c(Cl)c2)C1` (centres undefined), for which the EC50 was > 200 µM and the IC50 worked out at 22.4 µM.
As for `Cc1[nH]c2ccccc2c1CC/C(=N\Nc1ccccc1)c1ccccc1`, the result was inactive.
On to `CN(C)/N=C1\CC(c2ccccc2)C(C#N)(C#N)C1(C#N)C#N` (centres undefined), for which the EC50 was > 200 µM and the IC50 was determined as 5.62 µM.
The corresponding values for `N/C(=N\NS(=O)(=O)c1ccccc1)C(F)(F)F` are > 200 µM and 107 µM.
Consider `c1ccc2c(c1)Cc1cn3c(nc1-2)nc1ccccc13`, for which the EC50 was > 200 µM and the IC50 came out at 129 µM.
Consider `O=C(NCCO)c1ccc[c]([Sb](=[O])([OH])[OH])c1`, for which the EC50 is 23.4 µM and the IC50 stood at 398 µM.
The corresponding values for `Clc1cc(Cl)c(OCC#CI)cc1Cl` are > 200 µM and 6.92 µM.
The corresponding values for `C=Cc1ccccc1N=NC(C(=O)OC)=P(c1ccccc1)(c1ccccc1)c1ccccc1` are > 1.17 µM and > 1.17 µM.
For the compound `O=c1cc(CNC2CCCC2)[nH]c(=O)[nH]1`, the outcome was inactive.
Turning to `CCO/C=C/c1cc2c(c3c1-c1c(cc(OC)c(OC)c1OC)C3=O)OCO2`, the EC50 was > 6.46 µM and the half-inhibitory concentration (IC50) was > 6.46 µM.
As to `CC(C)N(C(=O)c1ccc([N+](=O)[O-])cc1)C(C)C`, the EC50 is > 200 µM and the IC50 is > 200 µM.
In the case of `CCOC(=O)c1c(NC(=O)CCC(=O)Nc2sc(C)c(C)c2C(=O)OCC)sc(C)c1C`, the EC50 was > 100 µM and the IC50 is > 100 µM.
Turning to `CNC(=O)[C@@H](C)C1C(=O)/C(=C(O)\C=C\C(C)C)C(=O)N1C1CCC(O)C(C)O1` (some centres undefined), the outcome was inactive.
The same measure, in the same setting: then `Nc1c(N=Nc2ccc(-c3ccc(N=Nc4c(S(=O)(=O)O)cc5cc(S(=O)(=O)O)c(N=Nc6ccccc6)c(O)c5c4N)cc3)cc2)ccc2c(S(=O)(=O)O)cccc12`, with “inactive”.
In the case of `CCOC(=O)C(NC(=O)CC(C)C)(NC(C)C)C(F)(F)F` (centres undefined), the EC50 is > 200 µM and the IC50 is > 200 µM.
Take `Cc1cccc(NC(=S)Nc2cccc(Cl)c2)n1`: the EC50 was > 200 µM and the half-inhibitory concentration (IC50) was > 200 µM.
In the case of `C[C@@H]1O[C@]2(O)[C@@H]3CCCN3S(=O)(=O)CCN2C1=O`, the EC50 is > 912 µM and the IC50 is > 912 µM.
For `CC(C)(C)[Si](C)(C)OCC1=C(CC#N)C(O[Si](C)(C)C(C)(C)C)C(n2ccc(=O)[nH]c2=O)O1` (centres undefined), the EC50 is > 200 µM and the IC50 was found to be 9.33 µM.
For the compound `COc1ccc(-c2nnc3n(C)c4ccccc4n3c2=O)cc1`, the EC50 was > 100 µM and the half-maximal inhibitory concentration (IC50) was > 100 µM.
`Cc1ccc(S(=O)(=O)N2CC3(CN(S(=O)(=O)c4ccc(C)cc4)CC4(C2)OCCO4)OCCO3)cc1`: the EC50 is > 200 µM and the IC50 was found to be 85.1 µM.
The corresponding values for `NC1=NS(=O)(=O)Nc2nc[nH]c21` are > 1320 µM and > 1320 µM.
Take `Cc1cn(C2CC(O)C(CN(O)C(N)=O)O2)c(=O)[nH]c1=O` (centres undefined): the EC50 was > 100 µM and the IC50 was > 100 µM.
On to `c1ccc2c(c1)SCC1COCOC21` (centres undefined), for which the EC50 is > 631 µM and the IC50 worked out at 617 µM.
`CCCC(=O)C(C)=C(OC)OC`: the outcome was inactive.
Regarding `O=C(OCCN1CCCCC1)C(c1ccccc1)C1(O)CCSCC1` (centres undefined), the EC50 was > 200 µM and the IC50 was > 200 µM.
Regarding `CC1=NN(C(=O)CC(=O)Nc2ccccc2C)C(=O)C1N=Nc1ccc(S(=O)(=O)c2ccc(N=NC3C(=O)N(C(=O)CC(=O)Nc4ccccc4C)N=C3C)cc2)cc1` (centres undefined), the EC50 was > 50.1 µM and the IC50 was > 50.1 µM.
Consider `CCOC(=O)c1ccc(NC(=O)SCCC(=O)O)cc1`, for which the outcome was inactive.
With `CC(C)C(=O)CC(Sc1ccc(N)cc1)c1ccccc1` (centres undefined), the EC50 is > 200 µM and the IC50 was found to be 87.1 µM.
Consider `O=C(O)C1(C(O)c2ccccc2)SCCCS1` (centres undefined), for which the EC50 was > 200 µM and the IC50 was > 200 µM.
Take `COCC1OCCN1C` (centres undefined): the EC50 was > 200 µM and the IC50 was > 200 µM.
`C/C=C/C(C#N)O[Si](C)(C)C` (centres undefined): the outcome was inactive.
`C=C1c2nc3ccccc3n2C=C(c2ccccc2)N1c1ccc([N+](=O)[O-])cc1`: the EC50 was > 200 µM and the 50% inhibitory concentration (IC50) was determined as 42.7 µM.
For the compound `O=C(ON=C1c2ccccc2C(Br)C(Br)c2ccccc21)c1ccccc1` (centres undefined), the EC50 was > 200 µM and the IC50 was 3.31 µM.
As for `CCCCCCCCCCCCCCCCP(=O)(O)OP(=O)(O)OCC1OC(n2ccc(N)nc2=O)C(O)C1O` (centres undefined), the EC50 is > 200 µM.
Regarding `O=C(O)CC(c1ccccc1)C(CC(=O)O)c1ccccc1` (centres undefined), the EC50 is > 437 µM and the IC50 is > 437 µM.
For the compound `COc1cc2c(cc1O)[C@H](C)C(c1ccc(Cl)cc1)O2` (some centres undefined), the EC50 was > 64.6 µM and the IC50 was 33.1 µM.
The corresponding values for `COC(=O)/C(=N\NC(N)=S)C(C#N)c1ccccc1` (centres undefined) are > 129 µM and > 129 µM.
The corresponding values for `Cc1cc([N+](=O)[O-])c(C)c2c1[nH]c1ccc(O)cc12` are > 38.9 µM and 6.92 µM.
For `O=S(=O)(O)c1ccc(N=Nc2ccc(N=Nc3c(S(=O)(=O)O)cc4cc(S(=O)(=O)O)cc(O)c4c3O)cc2)cc1`, the result was inactive.
For `Cc1cc(C#N)c(Nc2ccc(F)cc2[N+](=O)[O-])s1`, the EC50 was > 200 µM and the IC50 was > 200 µM.
For `CC(Nc1ccc(Cl)c(Cl)c1)c1ccncc1` (centres undefined), the EC50 is > 200 µM and the 50% inhibitory concentration (IC50) was 28.8 µM.
As for `O=c1c2cc(Br)ccc2oc2ccc(Br)cc12`, the result was inactive.
As for `C[C@]12CCC3c4ccc(OC(=O)c5ccccc5)cc4CC[C@H]3C1CC[C@@H]2OC(=O)C12OC1CCC2=O` (some centres undefined), the EC50 is > 200 µM and the IC50 was 4.07 µM.
With `C/C=C1/CN2C3CC1C1(C(=O)OC)C(OC(C)=O)[C@]4(C[C@H]21)c1cc(OC)ccc1N(C)C34` (some centres undefined), the result was inactive.
Consider `O=C(Nc1ccc(/C=C\c2ccc(NC(=O)c3cc(S(=O)(=O)O)ccc3O)cc2S(=O)(=O)O)c(S(=O)(=O)O)c1)c1cc(S(=O)(=O)O)ccc1O`, for which the EC50 was 70.8 µM and the IC50 was > 100 µM.
The corresponding values for `COc1ccc(-n2nc(C)cc(N)c2=O)cc1` are > 1070 µM and > 1070 µM.
The corresponding values for `Cc1cc(=O)n2c(nc3cc(Cl)ccc32)s1` are > 28.8 µM and > 28.8 µM.
The corresponding values for `CC12CCC(O)CC1=CCC1C2CCC2(C)C1CC1=CC(C#N)C(=O)NC12O` (centres undefined) are > 49 µM and 28.8 µM.
For the compound `c1ccc([P+](c2ccccc2)(c2ccccc2)C2c3ccccc3-c3ccccc32)cc1`, the EC50 was > 200 µM and the IC50 was found to be 10.7 µM.
The corresponding values for `CC(C)(C)c1cc(C2NC(=O)NC2=O)cc(C(C)(C)C)c1O` (centres undefined) are > 20 µM and > 20 µM.
As to `COC(=O)C1CCCN1` (centres undefined), the result was inactive.
Consider `Cc1cccc(NC(=S)Nc2ccc([N+](=O)[O-])cc2)n1`, for which the EC50 is > 200 µM and the IC50 was > 200 µM.
Regarding `COc1ccc(/C=N/Nc2nnc3c4ccccc4c4ncccc4c3n2)cc1`, the EC50 was > 501 µM and the IC50 is > 501 µM.
As for `CCCN(CCC)CCCOC(=O)c1ccc2oc3ccc(C(=O)OCCCN(CCC)CCC)cc3c2c1`, the EC50 was > 112 µM and the IC50 amounted to 6.61 µM.
As to `CC(=O)OC1CCn2nnc(COC(=O)NC(C)C)c21` (centres undefined), the result was inactive.
Consider `COc1cc([N+](=O)[O-])c(OC)c2c(=O)[nH]c(=O)[nH]c12`, for which the EC50 is > 47.9 µM and the IC50 is > 47.9 µM.
As to `CN1CCC23c4ccccc4NC1C21CCN(C)C3Nc2ccccc21`, the EC50 is > 724 µM and the IC50 was 617 µM.
With `O=S1(=O)c2ccccc2N2C(c3ccccc3)=NOC2(c2ccccc2)CC1c1ccc(Br)cc1` (centres undefined), the result was inactive.
Consider `COCN1C(=O)[C@@H]2C[C@@H](O)CN2C(=O)c2ccccc21`, for which the EC50 was > 200 µM and the concentration for half-maximal inhibition (IC50) is > 200 µM.
Take `CN(C)C1C(=O)C(C(N)=O)=C(O)C2(O)C(=O)C3=C(O)c4c(O)cccc4C(C)(O)C3C(O)C12` (centres undefined): the EC50 was > 263 µM and the IC50 came out at 95.5 µM.
Take `Cc1ccc(C(=O)/C=C/c2ccccc2O)c(C)c1`: the EC50 is 91.2 µM and the IC50 turned out to be 102 µM.
Take `CN(C)CC1CCCc2ccccc2C1=O` (centres undefined): the outcome was inactive.
As to `COC(=O)C(CC(=O)Nc1ccc(Cl)c(Cl)c1)C(=O)C(=O)NC1C2CC3CC(C2)CC1C3` (centres undefined), the EC50 is > 70.8 µM and the IC50 was > 70.8 µM.
With `CCOC1C(Br)Cn2c(=O)c3cc4ccccc4cc3c(=O)n2C1C` (centres undefined), the EC50 was > 17.8 µM and the IC50 is > 17.8 µM.
Consider `C/C=C1/C(=C/c2[nH]c(/C=c3\[nH]/c(=C/C4=NC(=O)C(CC)=C4C)c(C)c3CCC(=O)O)c(CCC(=O)O)c2C)NC(=O)C1C` (centres undefined), for which the outcome was inactive.
With `O=C1CCCCc2scc(C(=O)O)c2N1`, the EC50 is > 1120 µM and the IC50 was > 1120 µM.
Consider `CCCCCC(=O)Nc1n[nH]nc1C#N`, for which the EC50 is > 200 µM and the IC50 is > 200 µM.
As to `O=C1OC(=O)C2C3CCCCC3=C3CCCCC3C12` (centres undefined), the EC50 was > 200 µM and the IC50 is > 200 µM.
Turning to `Cc1cc(C(F)(F)F)nc2nc3ccccc3n12`, the EC50 is > 200 µM and the IC50 was > 200 µM.
